Test results reported in ChEMBL document CHEMBL1132774, “Tetrahydroisoquinoline derivatives containing a benzenesulfonamide moiety as potent, selective human beta3 adrenergic receptor agonists” (Bioorg Med Chem Lett, 2000).
pEC50, pIC50: −log10 of the molar value.

Assays:
[1] = target: T1, Beta-3 adrenergic receptor (Homo sapiens, UniProt P13945); experiment: Compound was evaluated for its inhibitory activity against human beta-3 adrenergic receptor (AR) at a concentration of 100 nM; format: functional
Target sequence in this assay (P13945 whole entry): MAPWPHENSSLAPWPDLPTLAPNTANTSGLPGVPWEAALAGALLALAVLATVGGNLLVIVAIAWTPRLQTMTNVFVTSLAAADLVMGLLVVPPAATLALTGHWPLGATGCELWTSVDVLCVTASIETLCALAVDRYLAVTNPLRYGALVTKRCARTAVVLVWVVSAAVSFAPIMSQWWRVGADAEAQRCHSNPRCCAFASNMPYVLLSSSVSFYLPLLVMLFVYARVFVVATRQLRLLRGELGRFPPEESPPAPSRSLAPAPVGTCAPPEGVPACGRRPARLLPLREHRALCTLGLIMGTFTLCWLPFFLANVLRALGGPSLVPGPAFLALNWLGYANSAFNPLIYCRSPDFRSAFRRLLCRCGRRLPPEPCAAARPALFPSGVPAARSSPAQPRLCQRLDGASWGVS

[2] = target: T2, Beta-2 adrenergic receptor (Homo sapiens, UniProt P07550); experiment: Inhibitory activity against CHO cells expressing human Beta-2 adrenergic receptor with [125I]-iodocyanopindolol; format: cell-based
Target sequence in this assay (P07550 whole entry): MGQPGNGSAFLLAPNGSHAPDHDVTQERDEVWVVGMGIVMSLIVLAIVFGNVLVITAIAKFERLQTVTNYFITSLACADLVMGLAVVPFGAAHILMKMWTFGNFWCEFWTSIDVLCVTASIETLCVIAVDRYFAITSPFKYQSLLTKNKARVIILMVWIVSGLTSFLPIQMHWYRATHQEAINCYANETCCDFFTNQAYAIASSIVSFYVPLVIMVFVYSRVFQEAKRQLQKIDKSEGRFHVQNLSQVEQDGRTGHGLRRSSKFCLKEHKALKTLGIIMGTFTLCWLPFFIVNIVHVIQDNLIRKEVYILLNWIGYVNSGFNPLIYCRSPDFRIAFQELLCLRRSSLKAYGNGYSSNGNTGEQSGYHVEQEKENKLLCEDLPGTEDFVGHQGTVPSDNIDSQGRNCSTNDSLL

[3] = target: T3, Beta-1 adrenergic receptor (Homo sapiens, UniProt P08588); experiment: Compound was evaluated for its inhibitory activity against CHO cells expressing the cloned human Beta-1 adrenergic receptor in the presence of [125I]iodocyanopindolol; format: cell-based
Target sequence in this assay (P08588 whole entry): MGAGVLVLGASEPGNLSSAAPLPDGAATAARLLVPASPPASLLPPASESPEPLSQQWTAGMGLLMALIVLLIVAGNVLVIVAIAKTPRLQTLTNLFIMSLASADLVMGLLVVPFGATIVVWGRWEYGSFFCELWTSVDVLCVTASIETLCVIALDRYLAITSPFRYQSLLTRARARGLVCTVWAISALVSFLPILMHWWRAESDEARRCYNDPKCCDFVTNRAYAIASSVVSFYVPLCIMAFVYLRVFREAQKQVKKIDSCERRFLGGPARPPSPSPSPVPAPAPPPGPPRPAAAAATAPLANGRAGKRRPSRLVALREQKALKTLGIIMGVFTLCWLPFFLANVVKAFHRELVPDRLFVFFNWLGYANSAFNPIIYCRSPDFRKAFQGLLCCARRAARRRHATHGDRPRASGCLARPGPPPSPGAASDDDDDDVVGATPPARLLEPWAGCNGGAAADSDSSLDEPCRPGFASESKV

[4] = target: T1, Beta-3 adrenergic receptor; experiment: Adenylyl cyclase activation at human beta-3 adrenergic receptor (AR); format: functional; parameters: concentration or dose not given beside the values
Target sequence in this assay (P13945 whole entry, looked up): as the sequence (P13945 whole entry) above

[5] = target: T1, Beta-3 adrenergic receptor; experiment: Inhibitory activity against human beta-3 adrenergic receptor (AR); format: functional
Target sequence in this assay (P13945 whole entry): as above

[6] = target: T3, Beta-1 adrenergic receptor; experiment: Compound was evaluated for its inhibitory activity against human beta-1 adrenergic receptor (AR); format: functional
Target sequence in this assay (P08588 whole entry): as the sequence (P08588 whole entry) above

[7] = target: T2, Beta-2 adrenergic receptor; experiment: Compound was evaluated for its inhibitory activity against human beta-2 adrenergic receptor (AR); format: functional
Target sequence in this assay (P07550 whole entry): as the sequence (P07550 whole entry) above

[8] = target: T3, Beta-1 adrenergic receptor; experiment: Compound was evaluated for its inhibitory activity against CHO cells expressing the cloned human beta-1 adrenergic receptor (AR) in the presence of [125I]iodocyanopindolol; format: functional, cell-based
Target sequence in this assay (P08588 whole entry): as the sequence (P08588 whole entry) above

[9] = target: T3, Beta-1 adrenergic receptor; experiment: (§1) Compound was evaluated for its adenylyl cyclase activation at human beta-1 adrenergic receptor (AR); format: functional; parameters: concentration or dose not given beside the values
Target sequence in this assay (P08588 whole entry, looked up): as the sequence (P08588 whole entry) above

[10] = target: T2, Beta-2 adrenergic receptor; experiment: Compound was evaluated for its adenylyl cyclase activation at human beta-2 adrenergic receptor (AR); format: functional
Target sequence in this assay (P07550 whole entry, looked up): as the sequence (P07550 whole entry) above

[11] = target: T3, Beta-1 adrenergic receptor; experiment: Compound was evaluated for its inhibitory activity against CHO cells expressing the cloned human beta-1 adrenergic receptor (AR) in the presence of [125I]-iodocyanopindolol; format: cell-based
Target sequence in this assay (P08588 whole entry): as the sequence (P08588 whole entry) above

[12] = target: T2, Beta-2 adrenergic receptor; experiment: Compound was evaluated for its inhibitory activity against CHO cells expressing the cloned human beta-2 adrenergic receptor (AR) in the presence of [125I]-iodocyanopindolol; format: functional, cell-based
Target sequence in this assay (P07550 whole entry): as the sequence (P07550 whole entry) above

[13] = target: T3, Beta-1 adrenergic receptor; experiment: as §1
Target sequence in this assay (P08588 whole entry, looked up): as the sequence (P08588 whole entry) above

Row | pEC50 [1] | pIC50 [2] | pIC50 [3] | Activation [4] | pEC50 [5] | pEC50 [6] | pEC50 [7] | pIC50 [8] | Activation [9] | Activation [10] | pIC50 [12] | Activation [13] | SMILES | pIC50 [11]
1 | 8.00 | 6.00 | 5.19 | – | – | – | – | – | – | – | – | – | CCCCCCNC(=O)Nc1ccc(S(=O)(=O)Nc2cccc(-c3ccc(OCC4NCCc5cc(O)c(O)cc54)cc3)c2)cc1 (stereo not given) | –
2 | – | – | – | 92% | 8.77 | – | – | – | – | – | – | – | COc1cc(C[C@@H]2NCCc3cc(O)c(O)cc32)cc(OC)c1OC [TRETOQUINOL] | –
3 | – | 6.15 | – | 62% | 6.44 | < 5.00 | 5.57 | 6.28 | 22% | – | – | – | CCCCCCNC(=O)Nc1ccc(S(=O)(=O)Nc2cccc(-c3cccc(CC4NCCc5cc(O)c(O)cc54)c3)c2)cc1 (stereo not given) | –
4 | – | < 4.00 | 4.10 | 72% | 7.11 | – | – | – | – | – | – | – | CCCCCCNC(=O)Nc1ccc(S(=O)(=O)Nc2ccc3cc(OCC4NCCc5cc(O)c(O)cc54)ccc3c2)cc1 (stereo not given) | –
5 | – | 4.00 | – | 64% | 6.22 | < 6.00 | < 6.00 | 4.00 | 12% | 33% | – | – | CCCCCCNC(=O)Nc1ccc(S(=O)(=O)Nc2ccc(-c3cccc(CC4NCCc5cc(O)c(O)cc54)c3)cc2)cc1 (stereo not given) | –
6 | – | – | – | 91% | 8.22 | 5.74 | 6.47 | 5.52 | 44% | – | 5.47 | – | CCCCCCNC(=O)Nc1ccc(S(=O)(=O)Nc2ccc(-c3ccc(CC4NCCc5cc(O)c(O)cc54)cc3)cc2)cc1 (stereo not given) | –
7 | – | – | 5.70 | 72% | 7.80 | 5.62 | 6.24 | – | – | – | 6.80 | 23% | CCCCCCNC(=O)Nc1ccc(S(=O)(=O)Nc2ccc(-c3ccc(OCC4NCCc5cc(O)c(O)cc54)cc3)cc2)cc1 (stereo not given) | –
8 | – | – | – | 100% | 6.85 | 6.01 | 5.89 | 5.00 | 69% | – | 4.49 | – | CCCCCCNC(=O)Nc1ccc(S(=O)(=O)Nc2cccc(-c3ccc(CC4NCCc5cc(O)c(O)cc54)cc3)c2)cc1 (stereo not given) | –
9 | 8.15 | 6.52 | 6.00 | – | – | – | – | – | – | – | – | – | CCCCCCNC(=O)Nc1ccc(S(=O)(=O)Nc2ccc3cc(CC4NCCc5cc(O)c(O)cc54)ccc3c2)cc1 (stereo not given) | –
10 | – | 7.25 | – | 36% | 6.10 | – | – | – | – | – | – | – | COc1c(I)cc(CC2NCCc3nc(N)sc32)cc1I (stereo not given) | –

Row | SMILES | pEC50 [1] | pIC50 [2] | pIC50 [3] | Activation [4] | pEC50 [5] | pEC50 [6] | pEC50 [7] | pIC50 [8] | Activation [9] | Activation [10] | pIC50 [12] | Activation [13] | pIC50 [11]
11 | CCCCCCNC(=O)Nc1ccc(S(=O)(=O)Nc2ccc(OCC3NCCc4cc(O)c(O)cc43)cc2)cc1 (stereo not given) | 8.40 | 6.52 | 6.00 | – | – | – | – | – | – | – | – | – | –
12 | COc1cc(-c2ccc(CC3NCCc4cc(O)c(O)cc43)cc2)cc(OC)c1OC (stereo not given) | – | 6.12 | – | 77% | 7.57 | 5.21 | 5.82 | – | 45% | – | – | – | 5.74
13 | CCCCCCNC(=O)Nc1ccc(S(=O)(=O)Nc2ccc(CC3NCCc4cc(O)c(O)cc43)cc2)cc1 (stereo not given) | – | 6.70 | 5.92 | 82% | 7.18 | – | – | – | – | – | – | – | –
